{
  "source": "patent US7994182B2",
  "about": "(Pecsi Tudomanyegyetem, priority 2003, dated 2011)",
  "key": {"[1]": {"tested_on": "WRL-68 human liver cell line", "test": "Protecting effect against hydrogen peroxide induced cell death in WRL-68 cells (MTT cell survival)", "type": "cell-based", "details": "3 hours; for IC50: read-out: IC50: concentration where the hydrogen peroxide induced cell death was inhibited by 50%; for Emax: read-out: Maximum protection", "procedure": "The protecting effect of 4-quinazolinone derivatives against cell death caused by hydrogen peroxide in WRL-68 human liver cell line.\nThe human WRL-68 cell line was obtained from American Type Culture Collection (Rockville, Md.). The one layer thick cell lines were cultured in Dulbecco's modified. Eagle medium containing 1% antibiotic-antimycotic solution and 10% fetal calf serum under humid 37° C. air containing 5% CO2. The cells were separated every three days.\nThe cells were transformed to a 96-well plate with 2.5×10^4 cells/well initial concentration and were cultured overnight in humid 37° C. air containing 5% CO2. The following day 0.3 mM hydrogen peroxide was added to the medium either by itself or in the presence of one of the protecting agents. Three hours later the medium was removed and 0.5% water-soluble mitochondria stain, 3-(4,5-dimethylthiazol-2-yl)-2;5-diphenyl-tetrazolium bromide (MTT^+) was added to the cells. […] The optical density was determined at 550 nm by Anthos Labtech 2010 ELISA Reader (Wien, Austria). In every experiment at least 6 parallel samples were treated and the experiments were repeated three times. Table 1 presents the concentrations (given in μM) where the hydrogen peroxide induced cell death was inhibited by 50%."}, "[2]": {"target": "T1, poly(ADP-ribose) polymerase enzyme isolated from rat liver (Rattus norvegicus, UniProt P27008)", "T1 construct": "The poly(ADP-ribose) polymerase enzyme was isolated from rat liver as described earlier; from tissue; host or cells: rat liver", "T1 sequence (P27008 whole entry)": "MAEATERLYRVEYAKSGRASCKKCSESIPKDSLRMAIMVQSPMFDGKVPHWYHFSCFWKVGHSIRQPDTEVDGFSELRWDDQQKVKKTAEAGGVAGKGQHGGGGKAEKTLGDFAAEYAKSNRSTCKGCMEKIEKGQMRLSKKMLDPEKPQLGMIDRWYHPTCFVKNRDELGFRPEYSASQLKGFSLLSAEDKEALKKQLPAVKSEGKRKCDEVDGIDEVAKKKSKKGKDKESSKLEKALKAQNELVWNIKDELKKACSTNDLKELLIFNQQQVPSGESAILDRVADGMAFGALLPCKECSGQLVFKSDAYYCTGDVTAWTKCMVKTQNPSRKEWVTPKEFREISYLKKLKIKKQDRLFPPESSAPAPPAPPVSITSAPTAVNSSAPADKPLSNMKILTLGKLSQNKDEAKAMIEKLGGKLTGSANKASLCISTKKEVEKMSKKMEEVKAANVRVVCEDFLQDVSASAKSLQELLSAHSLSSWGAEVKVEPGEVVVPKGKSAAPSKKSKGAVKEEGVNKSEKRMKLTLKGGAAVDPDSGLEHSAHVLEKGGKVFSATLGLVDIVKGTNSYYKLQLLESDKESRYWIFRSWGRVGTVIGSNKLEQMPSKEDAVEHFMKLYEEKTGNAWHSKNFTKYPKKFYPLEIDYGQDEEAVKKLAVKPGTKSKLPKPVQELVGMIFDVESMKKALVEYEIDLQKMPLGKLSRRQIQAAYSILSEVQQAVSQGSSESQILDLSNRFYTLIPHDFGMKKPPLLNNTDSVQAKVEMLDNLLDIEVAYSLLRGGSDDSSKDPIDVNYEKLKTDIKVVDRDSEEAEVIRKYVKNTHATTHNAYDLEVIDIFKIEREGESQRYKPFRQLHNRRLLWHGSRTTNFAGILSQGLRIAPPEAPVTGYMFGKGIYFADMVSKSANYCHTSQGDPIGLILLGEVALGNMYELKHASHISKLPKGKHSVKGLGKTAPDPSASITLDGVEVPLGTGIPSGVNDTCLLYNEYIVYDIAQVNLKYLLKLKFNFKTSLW", "test": "In vitro inhibitory effect on PARP enzyme ([3H]-NAD+ incorporation)", "type": "biochemical", "details": "1 mM [3H]-NAD+, 15 minutes incubation", "procedure": "The In Vitro Inhibitory Effect of 4-quinazolinone Derivatives on PARP Enzyme\nThe poly(ADP-ribose) polymerase enzyme was isolated from rat liver as described earlier. The putative inhibitory effect of 4-quinazolinone derivatives was examined in this experiment. The activity of the PARP enzyme was determined in 130 μl solution containing 100 mM Tris-HCl buffer (pH 8.0), 10 mM MgCl2, 10% glycerol, 1.5 mM DTT, 1 mM [Adenin-2,8-^3H]-NAD^+ (4,500 cpm/nmol), 10 μg activated DNA and 10 μg histone. With or without the presence of 4-quinazolinone derivatives, the samples were incubated for 15 minutes, then the reactions were brought to stop by the addition of 8% trichloroacetic acid. After the addition of 0.5 mg albumin the samples were allowed to precipitate for 20 minutes on ice, then the insoluble substances were filtered on a glass filter, collected and washed five times with 5% perchloric acid. The protein-bound radioactivity was measured by LS-200 Beckman scintillation counter, the data is presented in μM in Table 2."}, "[3]": {"details": "Homo sapiens, WRL68, 0.3 mM hydrogen peroxide"}},
  "note": "Read-outs that look alike come from different tables or passages of the source.",
  "data": [
    {"smiles": "Cc1nc2ccccc2c(=O)[nH]1", "note": "[Compound 2, 2-methylquinazolin-4(3H)one, reference compound]", "values": [
      {"measurement": "IC50", "setting": "[1]; [3]", "result": 4, "unit": "µM"},
      {"measurement": "Emax", "setting": "[1]; [3]", "result": 54, "unit": "%"}
    ]},
    {"smiles": "O=c1[nH]c(S)nc2ccccc12", "note": "[Compound 3, 2-mercaptoquinazolin-4(3H)one, reference compound]", "values": [
      {"measurement": "IC50", "setting": "[1]; [3]", "result": 70, "unit": "µM"},
      {"measurement": "Emax", "setting": "[1]; [3]", "result": 52, "unit": "%"}
    ]},
    {"smiles": "Cc1nc2ccccc2c(=O)n1CC1=CC(C)(C)N([O])C1(C)C", "note": "[Compound 8, 3-[(1-Oxyl-2,2,5,5-tetramethyl-2,5-dihydro-1H-pyrrol-3-yl)methyl]-2-methylqunazolin-4(3H)-one]", "values": [
      {"measurement": "Maximum protection", "setting": "[1]; 0.3 mM hydrogen peroxide", "result": 0, "unit": "%"},
      {"measurement": "IC50", "setting": "[1]; 0.3 mM hydrogen peroxide", "result": "> 100", "unit": "µM"}
    ]},
    {"smiles": "Cc1nc2ccccc2c(=O)n1CC1=CC(C)(C)NC1(C)C", "note": "[Compound 9, 3-[(2,2,5,5-Tetramethyl-2,5-dihydro-1H-pyrrol-3-yl)methyl]-2-methylquinazolin-4(3H)-one]", "values": [
      {"measurement": "IC50", "setting": "[1]; [3]", "result": 10, "unit": "µM"},
      {"measurement": "Emax", "setting": "[1]; [3]", "result": 15, "unit": "%"}
    ]},
    {"smiles": "CC1(C)C=C(CSc2nc3ccccc3c(=O)[nH]2)C(C)(C)N1O", "note": "[Compound 12, 2-{[(1-Oxyl-2,2,5,5-tetramethyl-2,5-dihydro-1H-pyrrol-3-yl)methyl]thio}quinazolin-4(3H)-one]", "values": [
      {"measurement": "melting point", "result": "138 to 140", "unit": "°C"}
    ]},
    {"smiles": "CC1(C)C=C(CSc2nc3ccccc3c(=O)[nH]2)C(C)(C)N1", "note": "[Compound 13, 2-{[(2,2,5,5-Tetramethyl-2,5-dihydro-1H-pyrrol-3-yl)methyl]thio}quinazolin-4(3H)-one]", "values": [
      {"measurement": "melting point", "result": "150 to 151", "unit": "°C"}
    ]},
    {"smiles": "CC1(C)C=C(CSC2=Nc3ccccc3C(=O)C2)CC(C)(C)N1", "note": "[Compound 15, 2-{[(2,2,6,6-Tetramethyl-1,2,3,6-tetrahydropyridin-4-yl)methyl]thio}quinolin-4(3H)-one]", "values": [
      {"measurement": "IC50", "setting": "[1]; [3]", "result": 10, "unit": "µM"},
      {"measurement": "Emax", "setting": "[1]; [3]", "result": 61, "unit": "%"}
    ]},
    {"smiles": "CN(C)CCSc1nc2ccccc2c(=O)[nH]1", "note": "[Compound 17a]", "values": [
      {"measurement": "IC50", "setting": "[1]; [3]", "result": 0.15, "unit": "µM"},
      {"measurement": "Emax", "setting": "[1]; [3]", "result": 68, "unit": "%"},
      {"measurement": "IC50", "setting": "[2]", "result": 2, "unit": "µM"}
    ]},
    {"smiles": "CN(C)CCCSc1nc2ccccc2c(=O)[nH]1", "note": "[Compound 17b, 2-{[3(Dimethylamino)propyl]thio}quinazolin-4(3H)-one]", "values": [
      {"measurement": "IC50", "setting": "[1]; [3]", "result": 4.8, "unit": "µM"},
      {"measurement": "Emax", "setting": "[1]; [3]", "result": 65, "unit": "%"},
      {"measurement": "IC50", "setting": "[2]", "result": 6, "unit": "µM"}
    ]},
    {"smiles": "O=c1[nH]c(SCCN2CCCCC2)nc2ccccc12", "note": "[Compound 17c, 2-[(2-Piperidin-1-ylethyl)thio]quinazolin-4(3H)-one]", "values": [
      {"measurement": "IC50", "setting": "[1]; [3]", "result": 0.8, "unit": "µM"},
      {"measurement": "Emax", "setting": "[1]; [3]", "result": 62, "unit": "%"},
      {"measurement": "IC50", "setting": "[2]", "result": 2.6, "unit": "µM"}
    ]},
    {"smiles": "CC1(C)CCCC(C)(C)N1CCSc1nc2ccccc2c(=O)[nH]1", "note": "[Compound 17d, 2-{[2-(2,2,6,6-Tetramethylpiperidin-1-yl)ethyl]thio}quinazolin-4(3H)-one]", "values": [
      {"measurement": "IC50", "setting": "[1]; [3]", "result": 0.1, "unit": "µM"},
      {"measurement": "Emax", "setting": "[1]; [3]", "result": 69.6, "unit": "%"},
      {"measurement": "IC50", "setting": "[2]", "result": 1.6, "unit": "µM"}
    ]},
    {"smiles": "CC1(C)C=C(c2nc3ccccc3c(=O)[nH]2)C(C)(C)N1O", "note": "[Compound 21, 2-(1-Oxyl-2,2,5,5-tetramethyl-2,5-dihydro-1H-pyrrol-3-yl)quinazolin-4(3H)-one]", "values": [
      {"measurement": "IC50", "setting": "[1]; [3]", "result": "> 100", "unit": "µM"},
      {"measurement": "Emax", "setting": "[1]; [3]", "result": 0, "unit": "%"}
    ]},
    {"smiles": "CC1(C)C=C(c2nc3ccccc3c(=O)[nH]2)C(C)(C)N1", "note": "[Compound 22, 2-(2,2,5,5-Tetramethyl-2,5 dihydro-1H-pyrrol-3-yl)quinazolin-4(3H)-one]", "values": [
      {"measurement": "melting point", "result": "254 to 256", "unit": "°C"}
    ]},
    {"smiles": "CC1(C)C=C(c2nc3ccccc3c(=O)[nH]2)CC(C)(C)N1O", "note": "[Compound 23, 2-(1-Oxyl-2,2,6,6-tetramethyl-1,2,3,6-tetrahydropyridin-4-yl)quinazolin-4(3H)-one]", "values": [
      {"measurement": "IC50", "setting": "[1]; [3]", "result": 13, "unit": "µM"},
      {"measurement": "Emax", "setting": "[1]; [3]", "result": 50, "unit": "%"}
    ]},
    {"smiles": "CC1(C)C=C(c2nc3ccccc3c(=O)[nH]2)CC(C)(C)N1", "note": "[Compound 24, 2-(2,2,6,6-Tetramethyl-1,2,3,6-tetrahydropyridin-4-yl)quinazolin-4(3H)-one]", "values": [
      {"measurement": "IC50", "setting": "[1]; [3]", "result": 12, "unit": "µM"},
      {"measurement": "Emax", "setting": "[1]; [3]", "result": 50, "unit": "%"}
    ]}
  ]
}
